Here are results for eight compounds from US20220105183A1, “MICRO-NANO STRUCTURE FORMED BY SELF-ASSEMBLING ORGANIC SMALL MOLECULE COMPOUND AND USE THEREOF” (Qingdao University of Science and Technology, priority 2018, published 2022).

The structures appear in SMILES notation.

What all share (format): physicochemical
Data set [1] in a line: Photothermal stability, repeated 808 nm irradiation and cooling. As to conditions: for reduction of absorbance after 5 times of irradiation: ultraviolet spectra before and after. As to the method:
We selected sample No. 3 to test the photothermal stability experiment. As shown in the right figure of FIG. 8, sample No. 3 was irradiated with 808 nm laser for 9 minutes and then the temperature increased from room temperature 30° C. to 62° C., and then allowed to naturally cool down to room temperature, and irradiated with 808 nm laser again for 9 minutes, then naturally cooled down, and repeated for 5 times. […] After 9 minutes of irradiation, the temperature was raised by […], and then returned to room temperature.

A short description of data set [2]: DLS particle size / self-assembly of the compounds in aqueous solution. As to conditions: 20 μM working solution in deionized water; for DLS particle size peak (nm) / DLS particle size range (nm): micro-nano structure. As to the method: The term “particle size” refers to the size of particles, also known as “granularity” or “diameter”. When a certain physical characteristic or physical behavior of the measured particle is closest to a homogeneous sphere (or combination) of a certain diameter, the diameter (or combination) of the sphere is taken as the equivalent particle size of the measured particle. The particle size parameter of the micro-nano structure of the present invention is measured by the principle of dynamic light scattering (DLS), specifically measured by a laser particle size analyzer.
(§1) Taking the self-assembled micro-nano structure of Compound II-1 as an example, II-1 was dissolved in DMSO (also can be an organic solvent such as ethanol) to prepare a 2 mM storage solution, and a small amount of storage solution was added to deionized water to prepare 20 μM working solution. Took 10 μL and dropped it on copper mesh, observed and analyzed under transmission electron microscope (TEM), cryo-transmission electron microscope. Took 10 μL and dropped it on mica plate, observed and analyzed under atomic force microscope (AFM). In FIGS. 5, A, B, C and D were TEM photographs, cryo-transmission electron microscope photographs, AFM photographs, and AFM analysis data, respectively. According to the photographs and data, II-1 was self-assembled into nanosheets with a diameter of 40-70 nm and a thickness of 3.7-3.9 nm. […]
Among them, the particle size test results of II-12 to II-15 in aqueous solution are shown in FIG. 6, and the results of dynamic light scattering DLS of II-16 to 1-18 are shown in FIG. 7).

A short description of data set [3]: TEM, cryo-TEM and AFM of the self-assembled micro-nano structure. As to conditions: micro-nano structure in aqueous solution, AFM and TEM. On the procedure: as §1
A short description of data set [4]: Photothermal effect in vitro under 808 nm laser irradiation. As to conditions: for light-to-heat conversion efficiency: 20 μM in water; for light-to-heat conversion efficiency / photothermal effect: 808 nm (2.6 W/cm-2) laser 10 minutes; for temperature rise: 40 μM in water, 808 nm (2.6 W/cm-2) laser, within 10 minutes; for photothermal effect: in water. As to the method: A total of 4 groups of samples, 3 mL was taken and added to a cuvette respectively, and the lid was sealed.
The sample No. 2 was 10 μM II-1, and the specific preparation method is 3 mL deionized water plus 15 μL II-1 stock solution (2 mM, dissolved in DMSO);
The sample No. 3 was 20 μM II-1, and the specific preparation method was that 3 mL deionized water was added 30 μL II-1 stock solution (2 mM, dissolved in DMSO);
The sample No. 4 was 40 μM II-1, and the specific preparation method was that 3 mL deionized water was added 60 μL II-1 stock solution (2 mM, dissolved in DMSO).
Each sample was irradiated with an 808 nm laser for 5 minutes, and the temperature data was recorded every 5 seconds with a thermal imager, and the temperature corresponding to the time was plotted in origin, as shown in the left figure of FIG. 8. […] The temperature of sample No. 2 increased from room temperature 30° C. to 54° C., and the temperature was raised by 24° C. The temperature of sample No. 3 increased from room temperature 30° C. to 62° C., and the temperature was raised by 32° C. The temperature of sample No. 4 increased from room temperature 30° C. to 77° C., and the temperature was raised by 47° C.
Using a method similar to Example 8, 10 μM, 20 μM and 40 μM samples of II-16, II-17 and II-18 were prepared, respectively, they were irradiated under an 808 nm (2.6 W/cm-2) laser for 10 minutes. 40 μM II-16 to 18 samples can rise by 40° C., 36° C. and 18° C. respectively within 10 minutes under laser irradiation.
Using a method similar to that in Example 8, three samples of 20 μM of 1-16, II-17 and II-18 in water were irradiated with 808 nm (2.6 W/cm-2) laser for 10 minutes, and the light-to-heat conversion efficiency calculation result thereof were shown in FIG. 10. […] And II-18 not only has poor light-heat effect, but also has low light-heat conversion efficiency, only 12.9%.

A short description of data set [5]: Assembly stability in different media. As to the method:
Since II-16 has excellent photothermal properties, its assembly stability in serum-containing medium and in PBS at different temperatures was tested, as shown in FIG. 13.

[6] abbreviates: 808 nm laser at 2.6 W/cm-2, irradiated and cooled 5 times.

Consider `CC1(C)C(/C=C/C=C/C=C/C=C2\N(CCCCS(=O)(=O)[O-])c3ccc4ccccc4c3C2(C)C)=[N+](CCCCS(=O)(=O)[O-])c2ccc3ccccc3c21.[Na+]` [ICG, reference compound], for which, in data set [1] (808 nm laser, after 9 minutes of irradiation), the “temperature raised by, first irradiation” value is 15 °C. Also, the “temperature on laser irradiation again” value in data set [1] (after return to room temperature, second irradiation) is “the temperature cannot be increased”. Moreover, in data set [2], the “particle size by DLS” value is “could not be detected”.

`C=CCOc1ccc(C2CC(=CC=C3N(CC)c4ccccc4C3(C)C)C(Cl)=C(C=CC3=C(C#N)C(=C(C#N)C#N)OC3(C)C)C2)cc1` (centres unmarked) [II-12]: the Morphology entry in data set [3] is “nano-sheet”. Also, in data set [2], the “DLS particle size peak (nm)” value turned out to be 78 nm and the “DLS particle size range (nm)” value is reported as 20-160 nm.

Take `C#CCOc1ccc(C2CC(=CC=C3N(CC)c4ccccc4C3(C)C)C(Cl)=C(C=CC3=C(C#N)C(=C(C#N)C#N)OC3(C)C)C2)cc1` (centres unmarked) [II-13]: the Morphology result in data set [3] is recorded as “nano-sheet”. Further, in data set [2], the “DLS particle size peak (nm)” value came out at 74 nm and the “DLS particle size range (nm)” value was 40-110 nm.

Regarding `CCN1C(=CC=C2CCCC(C=CC3=C(C#N)C(=C(C#N)C#N)OC3(C)C)=C2Cl)C(C)(C)c2ccc3ccccc3c21` [II-14], the Morphology result in data set [3] is listed as “nano-sheet”. In data set [2], the “DLS particle size peak (nm)” value worked out at 78 nm and the “DLS particle size range (nm)” value is on record as 27-134 nm.

For the compound `C#CCOc1ccc(C2CC(=CC=C3N(CC)c4ccccc4C3(C)C)C(NCCn3ccnc3[N+](=O)[O-])=C(C=CC3=C(C#N)C(=C(C#N)C#N)OC3(C)C)C2)cc1` (centres unmarked) [II-15], the Morphology result in data set [3] is reported as “nano-sheet”. Besides, in data set [2], the “DLS particle size peak (nm)” value amounted to 60 nm and the “DLS particle size range (nm)” value was 40-110 nm.

`CCn1c(=CC=C2CCCC(C=CC3=C(C#N)C(=C(C#N)C#N)OC3(C)C)=C2Cl)c2cccc3cccc1c32` [II-16]: the Morphology result in data set [3] is reported as “nano-sheet”. Besides, in data set [1] (setting [6]), the “temperature in repeated irradiations” value was “each time the temperature can rise to the same temperature as the first time” and the “reduction of absorbance after 5 times of irradiation” value is given as 2%. Moreover, in data set [4], the light-to-heat conversion efficiency worked out at 56.9%, the temperature rise came to 40 °C and the photothermal effect result is “excellent photothermal effect”. In addition, in data set [2], the “DLS particle size peak (nm)” value stood at 199 nm and the “DLS particle size range (nm)” value is listed as 163-293 nm. Besides, the absorbance over time entry in data set [5] (at 37° C.) is recorded as “the absorbance will decrease with time”. Moreover, the “aggregation mode (H aggregation)” value in data set [5] (serum-containing medium and PBS at different temperatures) is listed as “will not change due to changes in external conditions”.

For `CCN1C(=CC=C2CCCC(C=CC3=C(C#N)C(=C(C#N)C#N)OC3(C)C)=C2Cl)Sc2ccccc21` [II-17], the Morphology result in data set [3] is reported as “nano-sheet”. For the same compound, the “reduction of absorbance after 5 times of irradiation” value in data set [1] (setting [6]) was determined as 75%. For the same compound, in data set [4], the light-to-heat conversion efficiency worked out at 25%, the temperature rise stood at 36 °C and the photothermal effect entry is given as “excellent photothermal effect”. Further, in data set [2], the “DLS particle size peak (nm)” value turned out to be 10 nm and the “DLS particle size range (nm)” value was 10-86 nm.

As to `CCN(CC)c1ccc2c(c1)OC1=C(C=C3CCCC(C=CC4=C(C#N)C(=C(C#N)C#N)OC4(C)C)=C3Cl)CCCC1=C2` [II-18], the Morphology entry in data set [3] is “nano-sheet”. Besides, in data set [4], the light-to-heat conversion efficiency is given as 12.9%, the temperature rise worked out at 18 °C and the photothermal effect entry was “poor photothermal effect”. In data set [2], the “DLS particle size peak (nm)” value amounted to 42 nm and the “DLS particle size range (nm)” value is 42-139 nm.
